Settings: hairless rats, pad saturated with 4% lidocaine, 2 cm^2 delivery pad, 0.3 mA for 24 hours, active iontophoretic probe; for the entire 24-hour period
From the text: An incision was made in hairless rats, which was then sutured closed.

## CCN(CC)CC(=O)Nc1c(C)cccc1C [lidocaine]
  Concentration of lidocaine generated in the incision: sufficient to cause anesthesia

From US8295924B2, “Transdermal systems for the delivery of ionic agents directly to open wounds and surgically repaired incisions” (Teikoku Pharma USA, Inc., priority 2006, dated 2012)
